{"source": "patent US5728727A", "about": "“Antiosteoporotic compound” (American Home Products Corporation, priority 1996, dated 1998)", "key": {"calcitonin receptor [1]": {"target": "T1, calcitonin receptor (Rattus norvegicus, UniProt P32214)", "T1 construct": "Kidneys were removed and placed in ice cold saline; from tissue; host or cells: Sprague-Dawley rat kidney, renal plasma membrane", "T1 sequence (P32214 25-479 isoform P32214-2 limits assumed)": "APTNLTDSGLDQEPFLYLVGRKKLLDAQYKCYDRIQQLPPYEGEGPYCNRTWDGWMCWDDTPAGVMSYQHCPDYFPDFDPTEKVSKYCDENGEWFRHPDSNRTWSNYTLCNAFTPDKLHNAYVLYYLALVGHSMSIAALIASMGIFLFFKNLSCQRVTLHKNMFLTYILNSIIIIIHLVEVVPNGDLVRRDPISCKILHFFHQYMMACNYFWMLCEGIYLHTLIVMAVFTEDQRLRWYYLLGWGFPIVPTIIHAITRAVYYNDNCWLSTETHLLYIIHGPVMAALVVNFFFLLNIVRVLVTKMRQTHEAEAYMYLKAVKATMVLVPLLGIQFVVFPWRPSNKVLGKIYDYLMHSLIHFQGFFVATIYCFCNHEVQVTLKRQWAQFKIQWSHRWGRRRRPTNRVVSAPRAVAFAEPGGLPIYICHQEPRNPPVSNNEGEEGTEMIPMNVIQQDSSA", "experiment": "binding to the calcitonin receptor (125I-salmon calcitonin displacement, rat renal plasma membrane)", "design": "species or system rat (Sprague-Dawley)", "method": "The first in vitro standard pharmacological test procedure measures the ability of the compound to be evaluated to bind to the calcitonin receptor. The following describes the procedure used and the results obtained.\nAdult female or male Sprague-Dawley rats (250-350 gm), were euthanized by CO2 asphyxiation. Kidneys were removed and placed in ice cold saline; all subsequent procedures were carded out at 4° C. Kidneys were decapsulated and coarsely minced with scissors. […]\nSamples were incubated for 1 hour at room temperature. […] The filters were counted for a period of 2 minutes per sample utilizing an LKB Betaplate Reader."}, "calcitonin receptor [2]": {"target": "T2, calcitonin receptor (Homo sapiens, UniProt P30988)", "T2 construct": "host or cells: T-47D", "T2 sequence (P30988 25-474)": "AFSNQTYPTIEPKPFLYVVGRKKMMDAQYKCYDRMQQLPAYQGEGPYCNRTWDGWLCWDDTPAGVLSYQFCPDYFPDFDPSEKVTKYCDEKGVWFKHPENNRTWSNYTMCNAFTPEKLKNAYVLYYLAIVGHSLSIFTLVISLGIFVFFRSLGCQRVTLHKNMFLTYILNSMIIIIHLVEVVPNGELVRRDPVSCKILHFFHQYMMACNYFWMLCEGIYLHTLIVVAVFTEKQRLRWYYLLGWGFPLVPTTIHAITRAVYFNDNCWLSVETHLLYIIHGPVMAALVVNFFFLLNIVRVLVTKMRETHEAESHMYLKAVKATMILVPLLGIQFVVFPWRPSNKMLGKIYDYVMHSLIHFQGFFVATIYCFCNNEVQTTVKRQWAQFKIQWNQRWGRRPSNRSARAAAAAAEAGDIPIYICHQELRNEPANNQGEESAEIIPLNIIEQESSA", "experiment": "calcitonin agonist test: cAMP generation in T-47D cells", "format": "cell-based", "details": "for cAMP: basal 1", "description": "The second in vitro standard pharmacological test procedure determines the ability of the compound to be evaluated to act as a calcitonin agonist, by measuring the levels of cAMP produced in response to the test compound. The following briefly describes the procedure used and the results obtained.\ncAMP was generated in T-47D cells (a human mammary carcinoma cell line available from the American Type Culture Collection, Rockville, Md., USA) according to the following procedure. […] After the incubation was completed, the growth medium was aspirated from the cells in the plate.\nFifty ul of antiserum was added to all wells with the exception of the non-specific binding wells (NSB). Fifty ul of the SPA anti-rabbit reagent was added to all wells.\nIntracellular cAMP levels in the T-47D cells following salmon calcitonin stimulation for 10 rain at 37° C. are as follow: […]"}, "osteoclasts": {"tested_on": "osteoclasts", "experiment": "inhibition of bone resorption by osteoclasts (pits excavated per bone slice)", "format": "cell-based", "details": "Osteoclast, neonatal rat osteoclasts on bovine cortical bone slices, 24 h", "method": "Briefly, osteoclasts were isolated from neonatal rat long bones by mincing the bones in Medium 199 containing Hank's salts (3 ml per 10 bones from each of 5 animals). Osteoclasts were dislodged from the bone fragments by aspirating the bone fragments 50 times into and out of a transfer pipette. 100 μl of the resulting cell suspension from each animal was then plated onto each of 3 (per dose) 4.4 mm^2 slices of devitalized bovine femoral cortical bone that had been placed in the wells of a 96 well plate and pre-wetted with 100 μl of the medium. The osteoclasts were then allowed to adhere for 25 minutes at 37° C. The slices, with adherent osteoclasts, were then rinsed in 5 ml of medium to remove non-adherent cells. The slices were then transferred to Medium 199 containing Earle's salts with only 0.7 g/L NaHCO3 (to ensure that the medium equilibrates to a pH of 6.8-7.1 in a 5% CO2 atmosphere) and 10% heat-inactivated fetal bovine serum. […] The excavations (pits) made by the osteoclasts in the surface of the bone were visualized by staining with 1% toluidine blue for 3 minutes and bone resorption quantified microscopically by counting the number of pits excavated per slice."}, "[3]": {"experiment": "effect on serum calcium levels in young growing rats", "format": "in vivo, rat", "design": "Serum Calcium: unit not given here", "details": "for Serum Calcium: mean", "method": "{5R*-[6R*, 7S*, 8R*, 9R*, 12S*, 16S*, 18S*, 19S*, (13E)]} 4, 7, 19-Trihydroxy-2, 6, 8, 12, 12, 14, 16, 18-heptamethyl-6, 7, 8, 9, 10, 11, 12, 15, 16, 17, 18, 19-dodecahydro-1, 19:5, 9-diepoxybenzocyclooctadecen-3(5H)-one was also evaluated in an in vivo standard pharmacological test procedure that measures the effect of the test compound on serum calcium levels. Agents that inhibit bone resorption, such as calcitonin, regulate circulating calcium levels by inhibiting osteoclast mediated osteolysis and thereby inhibit the release of calcium from bone. The decrease in serum calcium levels following drug treatment indicates bone sparing activity. Calcitonin acts on specific membrane receptors of the bone resorbing osteoclast cells eliciting second messenger events such as increased cAMP generation that leads to inhibition of the cell's motility and inhibition of its bone resorbing functional activity. If bone turnover activity is high, such as in the young growing rat, this rapid inhibition in bone resorption is reflected by a transient decrease in circulating calcium. […] Young adult male rats weighing 160-170 g were held for at least 72 hours after receipt to acclimatize to colony conditions and then were randomly assigned to groups of 5-7 rats/group for treatment. The rats were administered vehicle or test compound, and at intervals between 0.5 and 3 hours after dosing, 1.0 ml of blood was collected from each rat under ketamin/acepromazine anesthesia via tail artery or (terminal via) cardiac puncture. Serum was evaluated for total calcium using a NOVA 7+7 blood analyzer.\nIn this standard pharmacological test procedure, all animals were dosed at 0 hours. For animals treated with the compound of Formula I, animals were bled sequentially. For animals treated with salmon calcitonin and untreated normal animals, a different group was used at each time point."}}}
{"molecule": "CC1=C2O[C@]3(O)C=C2C(=C(O)C1=O)[C@@H]1O[C@H](CC[C@H](C)/C=C(\\C)C[C@@H](C)C[C@@H]3C)[C@H](C)[C@H](O)[C@H]1C", "note": "(relative stereo) [Formula I, {5R*-[6R*, 7S*, 8R*, 9R*, 12S*, 16S*, 18S*, 19S*, (13E)]} 4,7, 19-Trihydroxy-2,6,8, 12, 12, 14, 16, 18-heptamethyl-6,7,8,9, 10, 11, 12, 15, 16, 17, 18, 19-dodecahydro-1, 19:5,9-diepoxybenzocyclooctadecen-3(5H)-one]", "values": [{"measurement": "inhibition of the binding of calcitonin to the calcitonin receptor (in words)", "setting": "calcitonin receptor [1]", "value": "competitively inhibited"}, {"measurement": "IC50", "setting": "calcitonin receptor [1]; 1 hour at room temperature", "value": 20.5, "unit": "µM"}, {"measurement": "EC50", "setting": "calcitonin receptor [2]; 10 min at 37° C., 10 μM IBMX, read-out: EC50, cAMP production (converted)", "value": 0.616, "unit": "µM"}, {"measurement": "calcitonin agonist activity (in words)", "setting": "calcitonin receptor [2]; cAMP", "value": "potent calcitonin agonist"}, {"measurement": "IC50", "setting": "osteoclasts", "value": 0.8, "unit": "µg/mL"}, {"measurement": "Serum Calcium", "setting": "[3]; 10 mg/kg, i.p., 0.5 hours, normals 10.92", "value": 10.73}, {"measurement": "Serum Calcium", "setting": "[3]; 10 mg/kg, i.p., 1.5 hours, normals 10.88, p < 0.01", "value": 10.21}, {"measurement": "Serum Calcium", "setting": "[3]; 10 mg/kg, i.p., 3.0 hours, normals 10.40, p < 0.01", "value": 9.99}, {"measurement": "Serum Calcium", "setting": "[3]; 30 mg/kg, i.p., 0.5 hours, normals 10.92", "value": 10.60}, {"measurement": "Serum Calcium", "setting": "[3]; 30 mg/kg, i.p., 1.5 hours, normals 10.88, p < 0.05", "value": 10.43}, {"measurement": "Serum Calcium", "setting": "[3]; 30 mg/kg, i.p., 3.0 hours, normals 10.40", "value": 10.18}, {"measurement": "Serum Calcium", "setting": "[3]; 100 mg/kg, i.p., 0.5 hours, normals 10.92, p < 0.01", "value": 10.29}, {"measurement": "Serum Calcium", "setting": "[3]; 100 mg/kg, i.p., 1.5 hours, normals 10.88, p < 0.01", "value": 10.19}, {"measurement": "Serum Calcium", "setting": "[3]; 100 mg/kg, i.p., 3.0 hours, normals 10.40, p < 0.05", "value": 10.06}, {"measurement": "reduction of serum calcium levels (in words)", "setting": "[3]; young growing rats, summary statement", "value": "significantly reduced serum calcium levels"}]}
{"molecule": "Salmon Calcitonin", "values": [{"measurement": "cAMP", "setting": "calcitonin receptor [2]; calcitonin 0.0001 nM, 10 min at 37° C.", "value": 2, "unit": "pmol/mL"}, {"measurement": "cAMP", "setting": "calcitonin receptor [2]; calcitonin 0.001 nM, 10 min at 37° C.", "value": 13, "unit": "pmol/mL"}, {"measurement": "cAMP", "setting": "calcitonin receptor [2]; calcitonin 0.01 nM, 10 min at 37° C.", "value": 105, "unit": "pmol/mL"}, {"measurement": "cAMP", "setting": "calcitonin receptor [2]; calcitonin 0.1 nM, 10 min at 37° C.", "value": "> 640", "unit": "pmol/mL"}, {"measurement": "Serum Calcium", "setting": "[3]; 5 IU/rat, s.c., 0.5 hours, normals 10.92, p < 0.01", "value": 8.17}, {"measurement": "Serum Calcium", "setting": "[3]; 5 IU/rat, s.c., 1.5 hours, normals 10.88, p < 0.01", "value": 7.45}, {"measurement": "Serum Calcium", "setting": "[3]; 5 IU/rat, s.c., 3.0 hours, normals 10.40, p < 0.01", "value": 6.65}]}
